Tests used:
parental CHOK1 cells = test: Flow cytometry binding to parental CHOK1 cells
Description: Scale is shown and yellow arrows correspond with each identified monomer. A schematic of the hexamer species is shown to the right, depicting dimerization of the Fc domain and trimerization of the CD40L domain. […] Recombinant hSIRPα-Fc, hCD40L-Fc, and hIgG1 were used as positive controls. […] In both panels, the CHOK1 Parental is on the left and the CHOK1/hCD47 is on the right. […] For both graphs, the CHOK1 Parental is on the bottom. […] In this figure, the control is the top curve, the SIRPα-Fc-CD40L is the middle curve, and the anti-CD47 is the bottom curve.
The extracellular domain (ECD) of SIRPα and the ECD of CD40L were fused via an antibody Fc domain to generate SIRPαECD-Fc-CD40LECD chimeric proteins. When human proteins were used, the chimeric protein is referred to as hSIRPα-Fc-CD40L; when murine proteins were used, the chimeric protein is referred to as and mSIRPα-Fc-CD40L. […] The purified protein was then analyzed for the presence of each individual domain by Western blotting using anti-SIRPα, anti-Fc, and anti-CD40L antibodies (FIG. 3A, bottom). […] Next, binding affinities for SIRPα-Fc-CD40L to recombinant CD47, CD40, or Fc receptors were evaluated by surface plasmon resonance (SPR). […] A functional ELISA evaluated whether SIRPα-Fc-CD40L could outcompete a commercially available single-sided SIRPα-Fc control for binding to recombinant CD47 (FIG. 3H).

[1] = target: recombinant hCD47 and recombinant hCD40 (Homo sapiens, UniProt P25942+Q08722); test: Functional dual ELISA (hCD40 capture, hCD47-His detection); type: binding
[2] = tested on: IFNα1, IFNβ1, CD80 and CD86 expression in macrophages; test: qRT-PCR of macrophages sorted from macrophage:Toledo lymphoma co-cultures; type: cell-based, human; design: macrophage activation and type I interferon gene expression: dose or concentration left out as unconfirmed
Experimental: (§1) FIG. 8D: Macrophage:Toledo lymphoma co-cultures were harvested 2 hours into phagocytosis assays in the presence of rituximab ([…]), SIRPα-Fc-CD40L ([…]), or the combination of both agents. Macrophages were isolated by CD11b+ FACS, RNA was prepared, cDNA synthesized, and gene expression (IFNa1, IFNb1, CD80, and CD86) assessed by qRT-PCR. Fold change was calculated using DDCT and values obtained from the housekeeping gene ACTB, and the corresponding values from untreated samples. […] After 2 hours, co-cultures were isolated from tissue culture vessels and were stained with a fluorescently conjugated CD11b antibody to discriminate macrophages. Cells were then assessed by flow cytometry for the co-localization of fluorescent signal from both cells types. Identical assays were set up where macrophages were pre-incubated for 1 hour with 20 μg/mL of a commercially available Fc block cocktail or with 20 μg/mL of a CD40 blocking antibody or with 5 μg/mL of a calreticulin blocking peptide. FIG. 8G: RAW 264.7-Lucia ISG cells were cultured with A20 lymphoma cells in the presence of […] of mSIRPα-Fc-CD40L, recombinant Fc-mCD40L, mSIRPα-Fc, or their combination, 1 mg/mL anti-mCD20, or the combination of mSIRPα-Fc-CD40L and anti-mCD20. After 24-hours type I interferon induced luminescence was assessed using a luminometer. The maximum luminescence (RLU) from each experiment was set to 1, and all other samples were normalized accordingly. Values from repeat experiments are shown.
RNA was prepared from macrophages isolated using fluorescent activated cell sorting (FACS) from SIRPα-Fc-CD40L/Rituximab treated co-cultures macrophages and Toledo lymphoma cells. The RNA was assessed by qRT-PCR for expression of IFNα1 and IFNβ1, and the macrophage activation markers CD80 and CD86.

Toledo lymphoma cells = test: Phagocytosis of Toledo lymphoma cells by human monocyte derived macrophages (flow cytometry); type: cell-based; details: combination with rituximab
Experimental: as §1
In contrast, phagocytosis-stimulating activity of the combination was not impacted when macrophages were pre-treated with a CD40-blocking antibody (“CD40 Block”).

[3] = tested on: A431 (high EGFR-expressing skin cancer cell line); test: Macrophage engulfment of A431 cells; type: cell-based, human; details: combination with anti-EGFR antibody (cetuximab); vs low EGFR-expressing tumor cells
[4] = tested on: K562 (low EGFR-expressing CML cell line); test: Macrophage engulfment of K562 cells; type: cell-based, human
CT26 tumor cells = test: CT26 tumor model, checkpoint antibody combinations (first Example 8); type: in vivo, BALB/C mice
Experimental: In FIG. 15B, the treatments included: an anti-CTLA-4 antibody (9D9), an anti-PD-1 antibody (RMP1-14), an anti-OX40 antibody (OX86), or the SIRPα(CD172a)-Fc-CD40L chimeric protein. […] In FIG. 15D, the treatments included the SIRPα(CD172a)-Fc-CD40L chimeric protein then the anti-CTLA-4 antibody. Tumor sizes were assayed every other day until the 27th day after inoculation.

CT26 tumor = CT26 tumor model, order of administration with anti-CTLA-4 or anti-PD-1 (Example 10); type: in vivo, mice
tumors = test: In vivo tumor model, SIRPα-Fc-LIGHT with anti-PD-1 (Example 15); design: species or system mice; details: combination with anti-PD-1 antibody
Experimental: The in vivo ability of combinations of the SIRPα-Fc-LIGHT chimeric protein with anti-PD-1 antibodies to target and treat tumors was determined. (FIG. 26A and FIG. 26B) FIG. 26C and FIG. 26D include data relevant to the graphs of FIG. 26A and FIG. 26B.

SIRPα-Fc-CD40L: generic name of the SIRPαECD-Fc-CD40LECD chimeric protein; human or murine version according to the experiment
binding (parental CHOK1 cells): not to parental CHOK1 cells | simultaneous binding of SIRPα-domain to hCD47 and CD40L-domain to hCD40 [1]: simultaneous binding | induction of type I interferon genes ([2]; combination with rituximab): enhanced | macrophage activation and type I interferon gene expression ([2]; monotherapy, 2 hours): induced macrophage activation and the expression of type I interferon genes | phagocytosis-stimulating activity (Toledo lymphoma cells; CALR Block (calreticulin blocking peptide)): unable to reduce | phagocytosis-stimulating activity (Toledo lymphoma cells; CD40 Block): not impacted | phagocytosis-stimulating activity (Toledo lymphoma cells; Fc Block): partially inhibited | phagocytosis-stimulating activity (Toledo lymphoma cells; calreticulin blocking peptide and Fc receptor block together): greatly reduced | macrophage engulfment of tumor cells [3]: more effective | phagocytic activity ([4]; combination with cetuximab): no phagocytic activity | phagocytic activity ([4]; monotherapy): no phagocytic activity | improvement in tumor volume (CT26 tumor cells; chimeric protein administered after the anti-CTLA-4 antibody): most significant improvement | tumor volume (CT26 tumor cells; combination with anti-CTLA-4 antibody): reduced tumor volume | treatment outcome (tumor size, survival) (CT26 tumor; anti-CTLA-4 antibody administered before the chimeric protein): greatest treatment outcome | treatment outcome (tumor size, survival) (CT26 tumor; anti-PD-1 antibody administered with the chimeric protein): greatest treatment outcome | treatment outcome / tumor control (CT26 tumor; chimeric protein administered before or after the anti-PD-1 antibody): less great treatment outcome | treatment outcome / tumor control (CT26 tumor; chimeric protein administered before the anti-CTLA-4 antibody): less great treatment outcome | rejection of primary tumor (tumors): able to reject primary tumor

From US20210379153A1, “COMBINATION THERAPIES COMPRISING SIRP ALPHA-BASED CHIMERIC PROTEINS” (Shattuck Labs, Inc., priority 2018, published 2021)
